Data reported in US11930822B2, “Methylobacterium compositions for fungal disease control” (priority 2017, dated 2024).

How the values were obtained:
Pythium sylvaticum = assay: Greenhouse Pythium assay in soybean, Pythium sylvaticum; format: in vivo
Description: (§1) A greenhouse experiment was conducted is to evaluate the ability of Methylobacterium strains to suppress Pythium disease in soybean. Methylobacterium treatments were compared to treatments with metalaxyl at various rates to determine if Methylobacterium strains can provide protection beyond and in addition to the level of protection provided by commonly used agronomic seed treatments. The experiment was designed to allow for growth of plants for in the presence of moderate levels of Pythium. spp. to determine impacts on emergence, % dead seed and root rot incidence and severity.
(§2) Pythium inoculants were prepared by mixing 453 g of parboiled rice and 323 mL of distilled water, placing the rice in a vented autoclavable plastic bag, and autoclaving 2×40 minutes with each cycle separated by 24 hours. Rice was inoculated with 3-4-day-old Pythium cultures and incubated for 7-10 days at 23 °C in the dark. The inoculum was then dried for 2 days.
(§3) A 20 ml layer of rice inoculum is placed on soil in cups and additional soil layered on top of the inoculum to position the inoculum approximately 2-3 cm below the seeds to be planted. Water is added to the soil and 10 seeds are planted in each cup. Domes are placed over the cups and the cups are placed in growth chambers with temperature set at 230C, and on a diurnal cycle of 16 h light and 8 h dark. The seeds are incubated for 14 days at 23 °C. For experiments to assess activity of Methylobacterium strains against a consortium of 4 Pythium species, the seeds are incubated for 14 days at 130C and for an additional 7 days at 23 °C.
(§4) Plants are rated when the first trifoliate is fully emerged and open to determine total plant weight, number of seedlings and number of dead seeds. Disease incidence is evaluated as percent plants with rotted roots and disease severity as percent rotted root tissue for each seedling.

Pythium lutarium = assay: Greenhouse Pythium assay in soybean, Pythium lutarium; format: in vivo
Description: as §1, §2, §3, §4

[1] = system: P. torulosum, P. oopapillum, P. sylvaticum and P. lutarium; assay: Greenhouse Pythium assay in soybean, consortium of 4 Pythium species; format: in vivo, Pythium spp.
Description: as §1, §2, §3, §4
Results from inoculation with a consortium of 4 Pythium species at alternating temperature of 130C and 230C are shown in Tables 35-36 below. The four species, which are all important pathogens of corn and soybean, are P. torulosum, P. oopapillum, P. sylvaticum and P. lutarium.

COCC(=O)N(c1c(C)cccc1C)C(C)C(=O)OC (stereo not drawn) [metalaxyl]
% Dead Seed (Pythium sylvaticum; Table 31, 0.35 Fl. oz/cwt): 18% | Emergence (Pythium sylvaticum; Table 31, 0.35 Fl. oz/cwt): 82 | Mean Emergence (%) (Pythium sylvaticum; Table 32, 0.35 Fl. oz/cwt): 78% | Mean Root Rot Severity (%) (Pythium sylvaticum; Table 32, 0.35 Fl. oz/cwt): 17% | Mean Emergence (%) (Pythium sylvaticum; Table 32, 0.75 Fl. oz/cwt): 92% | Mean Root Rot Severity (%) (Pythium sylvaticum; Table 32, 0.75 Fl. oz/cwt): 18% | Mean Emergence (%) (Pythium sylvaticum; Table 32, 1.25 Fl. oz/cwt): 78% | Mean Root Rot Severity (%) (Pythium sylvaticum; Table 32, 1.25 Fl. oz/cwt): 21% | % Dead Seed (Pythium lutarium; Table 33, 0.75 Fl. oz/cwt): 3% | Mean Emergence (%) (Pythium lutarium; Table 33, 0.75 Fl. oz/cwt): 97% | % Dead Seed (Pythium lutarium; Table 33, 1.25 Fl. oz/cwt): 67% | Mean Emergence (%) (Pythium lutarium; Table 33, 1.25 Fl. oz/cwt): 93% | Mean Root Rot Incidence (%) (Pythium lutarium; Table 34, 0.35 Fl. oz/cwt): 95% | Mean Root Rot Severity (%) (Pythium lutarium; Table 34, 0.35 Fl. oz/cwt): 13% | Mean Root Rot Incidence (%) (Pythium lutarium; Table 34, 0.75 Fl. oz/cwt): 95% | Mean Root Rot Severity (%) (Pythium lutarium; Table 34, 0.75 Fl. oz/cwt): 10% | Mean Root Rot Incidence (%) (Pythium lutarium; Table 34, 1.25 Fl. oz/cwt): 93% | Mean Root Rot Severity (%) (Pythium lutarium; Table 34, 1.25 Fl. oz/cwt): 11% | Mean Dead Seed (%) ([1]; Table 35, 0.35 Fl. oz/cwt): 6% | Mean Emergence (%) ([1]; Table 35, 0.35 Fl. oz/cwt): 94% | Mean Dead Seed (%) ([1]; Table 35, 0.75 Fl. oz/cwt): 2% | Mean Emergence (%) ([1]; Table 35, 0.75 Fl. oz/cwt): 100% | Mean Dead Seed (%) ([1]; Table 35, 1.25 Fl. oz/cwt): 2% | Mean Emergence (%) ([1]; Table 35, 1.25 Fl. oz/cwt): 94% | Root Rot INC (%) ([1]; Table 36, 0.35 Fl. oz/cwt): 94% | Root Rot Severity (%) ([1]; Table 36, 0.35 Fl. oz/cwt): 13% | Root Rot INC (%) ([1]; Table 36, 0.75 Fl. oz/cwt): 100% | Root Rot Severity (%) ([1]; Table 36, 0.75 Fl. oz/cwt): 12% | Root Rot INC (%) ([1]; Table 36, 1.25 Fl. oz/cwt): 94% | Root Rot Severity (%) ([1]; Table 36, 1.25 Fl. oz/cwt): 9%
